In BindingDB's records for doi:10.1021/acs.jmedchem.6b00397 (IQM-CSIC, 2016):
pKi: −log10 of the molar value.

Target: Cannabinoid receptor 2 (Homo sapiens, UniProt P34972)
Assay: Displacement of [3H]-CP55940 from human CB2 receptor expressed in HEK293 cell membranes after 90 mins by liquid scintillation counting method

Cannabinoid receptor 2, sequence (P34972 whole entry): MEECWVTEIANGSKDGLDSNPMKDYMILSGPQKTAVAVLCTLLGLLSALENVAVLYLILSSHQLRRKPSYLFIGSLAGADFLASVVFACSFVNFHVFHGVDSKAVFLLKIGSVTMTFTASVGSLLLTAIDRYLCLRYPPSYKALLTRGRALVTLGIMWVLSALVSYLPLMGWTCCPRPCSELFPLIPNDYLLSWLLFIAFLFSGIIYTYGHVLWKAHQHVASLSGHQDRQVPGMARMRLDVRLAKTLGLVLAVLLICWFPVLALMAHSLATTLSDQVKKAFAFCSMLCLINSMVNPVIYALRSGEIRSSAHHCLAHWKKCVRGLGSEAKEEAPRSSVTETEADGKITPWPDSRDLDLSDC

| SMILES | pKi |
| --- | --- |
| CCCCCCC(C)(C)c1cc(O)c2c(c1)OC(C)(C)c1cn(C)nc1-2 | < 4.40 |
| CCCCCCC(C)(C)c1cc(O)c2c(c1)OC(C)(C)c1cn(CC)nc1-2 | < 4.40 |
| CCCCCCC(C)(C)c1cc(O)c2c(c1)OC(C)(C)c1cnn(-c3ccc(Cl)cc3Cl)c1-2 | < 4.40 |
| CCCCCCC(C)(C)c1cc(O)c2c(c1)OC(C)(C)c1cnn(CC)c1-2 | < 4.40 |
